{"source": "ChEMBL document CHEMBL4842343", "about": "“1,10-Seco-Eudesmane sesquiterpenoids as a new type of anti-neuroinflammatory agents by suppressing TLR4/NF-κB/MAPK pathways” (Eur J Med Chem, 2021)", "key": {"BV-2 [1]": {"tested_on": "BV-2", "assay": "Inhibition of TLR4/NF-kappaB signalling pathway in LPS-stimulated mouse BV-2 cells assessed as decrease in CD14 cell surface expression at 10 uM pretreated for 1 hr followed by LPS stimulation and measured after 24 hrs by […] (reference value: 27.2%)", "format": "cell-based", "parameters": "scale not given: the % may be the effect or the level left", "settings": "time 25.0 hrs"}, "BV-2 [2]": {"tested_on": "BV-2", "assay": "Inhibition of TLR4/NF-kappaB signalling pathway in mouse BV-2 cells assessed as increase in CD14 cell surface expression at 10 uM pretreated for 1 hr and measured after 24 hrs by flow cytometry analysis (Rvb= 3.8%)", "format": "cell-based", "parameters": "scale not given: the % may be the effect or the level left", "settings": "time 25.0 hrs"}, "BV-2 [3]": {"tested_on": "BV-2", "assay": "Antineuroinflammatory activity in LPS- stimulated mouse BV-2 cells assessed as fold increase in HO-1 expression at 10 uM measured after 24 hrs by immunoblotting analysis relative to control", "format": "functional"}, "[4]": {"assay": "Potency index, ratio of OABC EC50 to test compound EC50 for inhibition of LPS-induced NO production in mouse BV-2 cells incubated for 24 hrs by Griess reagent based assay", "format": "functional"}, "BV-2 [5]": {"tested_on": "BV-2", "assay": "Inhibition of COX-2 expression in LPS-stimulated mouse BV-2 cells measured after 24 hrs by western blot analysis", "format": "functional, cell-based"}, "BV-2 [6]": {"tested_on": "BV-2", "assay": "Inhibition of COX-2 expression in mouse BV-2 cells at 10 uM measured after 24 hrs by western blot analysis", "format": "functional, cell-based"}, "BV-2 [7]": {"tested_on": "BV-2", "assay": "Inhibition of iNOS expression in LPS-stimulated mouse BV-2 cells measured after 24 hrs by western blot analysis", "format": "functional, cell-based", "settings": "dose 1-10 µM"}, "[8]": {"biological_target": "MAP kinase p38 (Mus musculus) (UniProt P47811+O08911+Q9WUI1+Q9Z1B7)", "assay": "Inhibition of p38 MAPK phosphorylation in LPS-stimulated mouse BV-2 cells measured after 2 hrs by western blot analysis", "format": "cell-based", "settings": "dose 0.3-10 µM"}, "BV-2 [9]": {"tested_on": "BV-2", "assay": "Inhibition of TNF-alpha production in LPS stimulated mouse BV-2 cells measured after 24 hrs by ELISA", "format": "functional, cell-based", "settings": "dose 1-10 µM"}, "[10]": {"assay": "Inhibition of LPS-induced NO production in mouse BV-2 cells incubated for 24 hrs by Griess reagent based assay", "format": "functional, cell-based", "settings": "Mus musculus, BV-2, 24 h; read-out: EC50"}, "BV-2 [11]": {"tested_on": "BV-2", "assay": "Inhibition of COX-1 expression in mouse BV-2 cells at 10 uM measured after 24 hrs by western blot analysis", "format": "functional, cell-based"}, "BV-2 [12]": {"tested_on": "BV-2", "assay": "Cytotoxicity against LPS-stimulated mouse BV-2 cells assessed as reduction in cell viability at 10 uM measured after 24 hrs by MTT assay relative to control", "format": "cell-based", "settings": "bv-2, 24 h"}, "BV-2 [13]": {"tested_on": "BV-2", "assay": "Antineuroinflammatory activity in LPS- stimulated mouse BV-2 cells assessed as conversion of microglia from M1 to M2 phenotype macrophages by measuring arginase-1 level at 10 uM measured after 24 hrs by ELISA", "format": "functional, cell-based"}, "BV-2 [14]": {"tested_on": "BV-2", "assay": "Potency indes, ratio of OABC to test compound for inhibition of COX-2 expression in LPS-stimulated mouse BV-2 cells at 10 uM measured after 24 hrs by western blot analysis", "format": "functional"}, "[15]": {"assay": "Potency indes, ratio of OABC to test compound for Inhibition of iNOS expression in LPS-stimulated mouse BV-2 cells at 10 uM measured after 24 hrs by western blot analysis", "format": "functional"}, "[16]": {"assay": "Inhibition of iNOS expression in mouse BV-2 cells at 10 uM measured after 24 hrs by western blot analysis relative to control", "format": "functional"}, "BV-2 [17]": {"tested_on": "BV-2", "assay": "Inhibition of TNF-alpha production in mouse BV-2 cells at 10 uM measured after 24 hrs by ELISA", "format": "functional, cell-based"}, "BV-2 [18]": {"tested_on": "BV-2", "assay": "Inhibition of PGE2 production in LPS- stimulated mouse BV-2 cells measured after 24 hrs by ELISA", "format": "functional, cell-based", "settings": "dose 1-10 µM"}, "BV-2 [19]": {"tested_on": "BV-2", "assay": "Antineuroinflammatory activity in LPS- stimulated mouse BV-2 cells assessed as conversion of microglia from M1 to M2 phenotype macrophages by measuring IL-10 production at 1 uM measured after 24 hrs by ELISA", "format": "functional, cell-based"}, "[20]": {"assay": "Effective permeability of the compound in PBS/EtOH buffer (9:1) at […] after 10 hrs by HPLC-UV based PAMPA-BBB assay", "format": "ADME", "settings": "read-out: permeability"}, "BV-2 [21]": {"tested_on": "BV-2", "assay": "Inhibition of PGE2 production in mouse BV-2 cells at 10 uM measured after 24 hrs by ELISA", "format": "functional, cell-based"}, "BV-2 [22]": {"tested_on": "BV-2", "assay": "Inhibition of NF-kappaB p65 translocation in LPS-stimulated mouse BV-2 cells assessed as distribution of NF-kappaB p65 in nucleus and cytoplasm at 3 uM pretreated for 1 hr followed by LPS stimulation measured after 24 hrs by DAPI staining based immunofluorescence assay", "format": "cell-based", "settings": "time 25.0 hrs"}, "BV-2 [23]": {"tested_on": "BV-2", "assay": "Inhibition of COX-1 expression in LPS-stimulated mouse BV-2 cells at 1 to 10 uM measured after 24 hrs by western blot analysis", "format": "functional, cell-based", "settings": "dose 1-10 µM"}, "BV-2 [24]": {"tested_on": "BV-2", "assay": "Inhibition of TLR4/NF-kappaB signalling pathway in LPS- stimulated mouse BV-2 cells assessed as reduction in MyD88 expression at 0.3 to 10 uM measured after 24 hrs by western blot analysis", "format": "cell-based", "settings": "dose 0.3-10 µM"}, "BV-2 [25]": {"tested_on": "BV-2", "assay": "Inhibition of ERK phosphorylation in LPS-stimulated mouse BV-2 cells at 0.3 to 10 uM measured after 2 hrs by western blot analysis", "format": "cell-based", "settings": "dose 0.3-10 µM"}, "BV-2 [26]": {"tested_on": "BV-2", "assay": "Inhibition of TLR4/NF-kappaB signalling pathway in LPS- stimulated mouse BV-2 cells assessed as reduction in IRAK1 expression measured after 24 hrs by western blot analysis", "format": "cell-based", "settings": "dose 0.3-10 µM"}, "BV-2 [27]": {"tested_on": "BV-2", "assay": "Antineuroinflammatory activity in LPS- stimulated mouse BV-2 cells assessed as upregulation of HO-1 expression measured after 24 hrs by immunoblotting analysis", "format": "functional, cell-based", "settings": "dose 1-10 µM"}, "[28]": {"assay": "Inhibition of iNOS expression in LPS-stimulated mouse BV-2 cells at 10 uM measured after 24 hrs by western blot analysis relative to control", "format": "functional"}}, "note": "Activity calls are given as the source filed them. The rule behind the calls is not given here.", "data": [{"smiles": "C=C1C(=O)O[C@@H]2CC(CBr)=C([C@@H](C)CCCOC(C)=O)[C@@H](OC(C)=O)[C@H]12", "values": [{"measurement": "Activity", "setting": "BV-2 [1]", "result": 9.9, "unit": "%"}, {"measurement": "Activity", "setting": "BV-2 [2]", "result": 10.6, "unit": "%"}, {"measurement": "fold change (FC)", "setting": "BV-2 [3]", "result": 2.8}, {"measurement": "Ratio EC50", "setting": "[4]", "result": 6}, {"measurement": "inhibition", "setting": "BV-2 [5]", "result": "Dose-Dependent Effect"}, {"measurement": "inhibition", "setting": "BV-2 [6]", "result": "Active"}, {"measurement": "inhibition", "setting": "BV-2 [7]", "result": "Dose-Dependent Effect"}, {"measurement": "Activity", "setting": "[8]", "result": "Dose-Dependent Effect"}, {"measurement": "inhibition", "setting": "BV-2 [9]", "result": "Dose-Dependent Effect"}, {"measurement": "EC50", "setting": "[10]", "result": 0.7, "unit": "µM"}, {"measurement": "inhibition", "setting": "BV-2 [11]", "result": "inactive"}, {"measurement": "Activity", "setting": "BV-2 [12]", "result": 90.6, "unit": "%"}, {"measurement": "Activity", "setting": "BV-2 [13]", "result": "Active"}, {"measurement": "fold change (FC)", "setting": "BV-2 [14]", "result": 4}, {"measurement": "fold change (FC)", "setting": "[15]", "result": 4}, {"measurement": "inhibition at 10 µM", "setting": "[16]", "result": 12.2, "unit": "%"}, {"measurement": "inhibition", "setting": "BV-2 [17]", "result": "inactive"}, {"measurement": "inhibition", "setting": "BV-2 [18]", "result": "Dose-Dependent Effect"}, {"measurement": "Activity", "setting": "BV-2 [19]", "result": "Active"}, {"measurement": "Papp at 10 h", "setting": "[20]", "result": 6.5, "unit": "×10⁻⁶ cm/s"}, {"measurement": "inhibition", "setting": "BV-2 [21]", "result": "inactive"}, {"measurement": "inhibition", "setting": "BV-2 [22]", "result": "Active"}, {"measurement": "inhibition", "setting": "BV-2 [23]", "result": "inactive"}, {"measurement": "inhibition", "setting": "BV-2 [24]", "result": "inactive"}, {"measurement": "inhibition", "setting": "BV-2 [25]", "result": "inactive"}, {"measurement": "inhibition", "setting": "BV-2 [26]", "result": "Dose-Dependent Effect"}, {"measurement": "Activity", "setting": "BV-2 [27]", "result": "Dose-Dependent Effect"}, {"measurement": "inhibition at 10 µM", "setting": "[28]", "result": 11.2, "unit": "%"}]}]}
